According to patent publication US20070207202A1, “PHARMACEUTICAL FORMULATIONS OF A MONOHYDRATE CRYSTAL FORM OF 2-(3-FLUORO-4-HYDROXYPHENYL)-7-VINYL-1,3-BENZOXAZOL-5-OL” (Wyeth, priority 2006, published 2007):

Assays:
Format in all cases: physicochemical
[1] = Separate long term study of micronized and non-micronized anhydrate (XRPD)
[2] = Dynamic vapor sorption (hygroscopicity); settings: for DVS gain: 0–90% RH
Excerpt: Dynamic Vapor Sorption (Allentown, Pa.) was used to measure the hygroscopicity of the anhydrate and monohydrate of the invention (see FIGS. 6 and 7). The step conditions were three hours each at 0%, 30%, 52.5%, 75% and 90% RH, two full cycles.

[3] = Medium term stability of crystal form (XRPD and TGA)
Experimental: Samples of monohydrate were stored at room temperature, 56° C., and 70° C. for one week. At room temperature, humidity was maintained at 0% RH. Humidity was not controlled for the higher temperatures.
The samples were analyzed by XRPD and TGA.

[4] = Short term stability of crystal form (XRPD)
[5] = Long term stability of crystal forms (XRPD, TGA, HPLC); settings: non-micronized, 40° C./75% RH (monohydrate also 40° C. without humidity control), three months
Experimental: Non-micronized samples of monohydrate and anhydrate were stored at 40° C./75% RH for three months. The monohydrate was also stored at 40° C. without humidity control. During the three months, the samples were checked after two weeks, one month, two months, and three months.

[6] = Water solubility of the two crystal forms

| crystal form transformation by XRPD ([1]; micronized samples, 25° C./60% RH, three months) | crystal form transformation by XRPD ([1]; micronized samples, 40° C./75% RH, one month) | crystal form transformation by XRPD ([1]; non-micronized samples, 40° C./75% RH) | DVS gain ([2]; listed as anhydrous crystal form) | crystal form stability by XRPD and TGA ([3]; 56° C., humidity not controlled, one week) | crystal form stability by XRPD and TGA ([3]; 70° C., humidity not controlled, 1 day) | crystal form stability by XRPD and TGA ([3]; 70° C., humidity not controlled, 4 days) | crystal form stability by XRPD and TGA ([3]; 70° C., humidity not controlled, 7 days) | crystal form stability by XRPD and TGA ([3]; room temperature, 0% RH, one week) | crystal form stability by XRPD ([4]; 70° C., one hour) | crystal form stability by XRPD ([4]; 90° C., one half hour) | crystal form stability by XRPD ([4]; 90° C., one hour) | chemical stability by HPLC [5] | crystal form transformation by XRPD and TGA [5] | hygroscopicity (DVS weight gain, in words) [2] | DVS gain ([2]; listed as monohydrate crystal form) | SMILES | water solubility compared between the two forms (in words) [6] |
| --- | --- | --- | --- | --- | --- | --- | --- | --- | --- | --- | --- | --- | --- | --- | --- | --- | --- |
| did not transform to the monohydrate | partially transform to the monohydrate | did not show any obvious transformation | 0.2% gain (0–90% RH) |  |  |  |  |  |  |  |  |  |  |  |  | C=Cc1cc(O)cc2nc(-c3ccc(O)c(F)c3)oc12 [anhydrate, 2-(3-fluoro-4-hydroxyphenyl)-7-vinyl-1,3-benzoxazol-5-ol] |  |
|  |  |  |  | no obvious dehydration | no obvious hydration | partially dehydrated | mostly dehydrated | no obvious dehydration | stable | partially dehydrated | completely dehydrated | chemically stable | did not transform | largely non-hygroscopic | 0.1% gain (0–90% RH) | C=Cc1cc(O)cc2nc(-c3ccc(O)c(F)c3)oc12 [monohydrate, 2-(3-fluoro-4-hydroxyphenyl)-7-vinyl-1,3-benzoxazol-5-ol] | significantly lower solubility than the anhydrate |
